PubChem BioAssay (NCI)
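Method: 48-hour compound exposure of cells in 96-well plates, five concentrations, linear interpolation of endpoints. TGI is the concentration that stops growth completely.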

Legend:
Assay in all cases: NCI tumour cell line growth inhibition, 48 h
HT29 colon = tested on: HT29 colon
SK-MEL-28 melanoma = tested on: SK-MEL-28 melanoma
ACHN renal = tested on: ACHN renal
SF-268 CNS = tested on: SF-268 CNS
HCT-15 colon = tested on: HCT-15 colon
EKVX NSCLC = tested on: EKVX NSCLC
OVCAR-3 ovarian = tested on: OVCAR-3 ovarian
CAKI-1 renal = tested on: CAKI-1 renal
COLO 205 colon = tested on: COLO 205 colon
NCI-H522 lung = tested on: NCI-H522 lung
UO-31 renal = tested on: UO-31 renal
M14 melanoma = tested on: M14 melanoma
SK-MEL-2 melanoma = tested on: SK-MEL-2 melanoma
PC-3 prostate = tested on: PC-3 prostate
NCI/ADR-RES ovarian = tested on: NCI/ADR-RES ovarian
CCRF-CEM leukemia = tested on: CCRF-CEM leukemia
KM12 colon = tested on: KM12 colon
SNB-19 CNS = tested on: SNB-19 CNS
A498 renal = tested on: A498 renal
NCI-H226 lung = tested on: NCI-H226 lung
MDA-MB-435 = tested on: MDA-MB-435
OVCAR-4 ovarian = tested on: OVCAR-4 ovarian
OVCAR-5 ovarian = tested on: OVCAR-5 ovarian
LOX IMVI melanoma = tested on: LOX IMVI melanoma
T-47D breast = tested on: T-47D breast
SF-295 CNS = tested on: SF-295 CNS
DU-145 prostate = tested on: DU-145 prostate
RPMI-8226 leukemia = tested on: RPMI-8226 leukemia
MCF7 breast = tested on: MCF7 breast
HOP-62 NSCLC = tested on: HOP-62 NSCLC
MDA-N = tested on: MDA-N
UACC-62 melanoma = tested on: UACC-62 melanoma
HCC-2998 colon = tested on: HCC-2998 colon
K-562 leukemia = tested on: K-562 leukemia
U251 CNS = tested on: U251 CNS
IGROV1 ovarian = tested on: IGROV1 ovarian
A549 NSCLC = tested on: A549 NSCLC
SK-MEL-5 melanoma = tested on: SK-MEL-5 melanoma
SF-539 CNS = tested on: SF-539 CNS
NCI-H460 lung = tested on: NCI-H460 lung
HS 578T breast = tested on: HS 578T breast
MALME-3M melanoma = tested on: MALME-3M melanoma
MOLT-4 leukemia = tested on: MOLT-4 leukemia
HCT-116 colon = tested on: HCT-116 colon
SNB-75 CNS = tested on: SNB-75 CNS
OVCAR-8 ovarian = tested on: OVCAR-8 ovarian
SN12C renal = tested on: SN12C renal
RXF 393 renal = tested on: RXF 393 renal
SK-OV-3 ovarian = tested on: SK-OV-3 ovarian
SW-620 colon = tested on: SW-620 colon
NCI-H23 lung = tested on: NCI-H23 lung
SR leukemia = tested on: SR leukemia
HL-60(TB) leukemia = tested on: HL-60(TB) leukemia
TK-10 renal = tested on: TK-10 renal
MDA-MB-231 breast = tested on: MDA-MB-231 breast
786-0 renal = tested on: 786-0 renal
HOP-92 NSCLC = tested on: HOP-92 NSCLC
UACC-257 melanoma = tested on: UACC-257 melanoma

Structure (SMILES): Nc1nc2c(ccc3ccccc32)[nH]1
- TGI (HT29 colon): > 10 µM
- TGI (SK-MEL-28 melanoma): > 10 µM
- TGI (ACHN renal): > 10 µM
- TGI (SF-268 CNS): > 10 µM
- TGI (HCT-15 colon): > 10 µM
- TGI (EKVX NSCLC): > 10 µM
- TGI (OVCAR-3 ovarian): > 10 µM
- TGI (CAKI-1 renal): > 10 µM
- TGI (COLO 205 colon): > 10 µM
- TGI (NCI-H522 lung): > 10 µM
- TGI (UO-31 renal): > 10 µM
- TGI (M14 melanoma): > 10 µM
- TGI (SK-MEL-2 melanoma): > 10 µM
- TGI (PC-3 prostate): > 10 µM
- TGI (NCI/ADR-RES ovarian): > 10 µM
- TGI (CCRF-CEM leukemia): > 10 µM
- TGI (KM12 colon): > 10 µM
- TGI (SNB-19 CNS): > 10 µM
- TGI (A498 renal): > 10 µM
- TGI (NCI-H226 lung): > 10 µM
- TGI (MDA-MB-435): > 10 µM
- TGI (OVCAR-4 ovarian): > 10 µM
- TGI (OVCAR-5 ovarian): > 10 µM
- TGI (LOX IMVI melanoma): > 10 µM
- TGI (T-47D breast): > 10 µM
- TGI (SF-295 CNS): > 10 µM
- TGI (DU-145 prostate): > 10 µM
- TGI (RPMI-8226 leukemia): > 10 µM
- TGI (MCF7 breast): > 10 µM
- TGI (HOP-62 NSCLC): > 10 µM
- TGI (MDA-N): > 10 µM
- TGI (UACC-62 melanoma): > 10 µM
- TGI (HCC-2998 colon): > 10 µM
- TGI (K-562 leukemia): > 10 µM
- TGI (U251 CNS): > 10 µM
- TGI (IGROV1 ovarian): > 10 µM
- TGI (A549 NSCLC): > 10 µM
- TGI (SK-MEL-5 melanoma): > 10 µM
- TGI (SF-539 CNS): > 10 µM
- TGI (NCI-H460 lung): > 10 µM
- TGI (HS 578T breast): > 10 µM
- TGI (MALME-3M melanoma): > 10 µM
- TGI (MOLT-4 leukemia): > 10 µM
- TGI (HCT-116 colon): > 10 µM
- TGI (SNB-75 CNS): > 10 µM
- TGI (OVCAR-8 ovarian): > 10 µM
- TGI (SN12C renal): > 10 µM
- TGI (RXF 393 renal): > 10 µM
- TGI (SK-OV-3 ovarian): > 10 µM
- TGI (SW-620 colon): > 10 µM
- TGI (NCI-H23 lung): > 10 µM
- TGI (SR leukemia): > 10 µM
- TGI (HL-60(TB) leukemia): > 10 µM
- TGI (TK-10 renal): > 10 µM
- TGI (MDA-MB-231 breast): > 10 µM

Structure (SMILES): N/N=C(\N)SCc1ccc(N=C=S)cc1
- TGI (HT29 colon): > 100 µM
- TGI (SK-MEL-28 melanoma): > 100 µM
- TGI (ACHN renal): > 100 µM
- TGI (SF-268 CNS): > 100 µM
- TGI (HCT-15 colon): > 100 µM
- TGI (EKVX NSCLC): > 100 µM
- TGI (CAKI-1 renal): > 100 µM
- TGI (COLO 205 colon): > 100 µM
- TGI (NCI-H522 lung): > 100 µM
- TGI (UO-31 renal): > 100 µM
- TGI (786-0 renal): > 100 µM
- TGI (SK-MEL-2 melanoma): > 100 µM
- TGI (PC-3 prostate): > 100 µM
- TGI (NCI/ADR-RES ovarian): > 100 µM
- TGI (CCRF-CEM leukemia): > 100 µM
- TGI (KM12 colon): > 100 µM
- TGI (SNB-19 CNS): > 100 µM
- TGI (A498 renal): > 100 µM
- TGI (MDA-MB-435): > 100 µM
- TGI (OVCAR-4 ovarian): > 100 µM
- TGI (OVCAR-5 ovarian): > 100 µM
- TGI (LOX IMVI melanoma): > 100 µM
- TGI (T-47D breast): > 100 µM
- TGI (SF-295 CNS): > 100 µM
- TGI (DU-145 prostate): > 100 µM
- TGI (RPMI-8226 leukemia): > 100 µM
- TGI (HOP-62 NSCLC): > 100 µM
- TGI (MDA-N): > 100 µM
- TGI (UACC-62 melanoma): > 100 µM
- TGI (HOP-92 NSCLC): > 100 µM
- TGI (HCC-2998 colon): > 100 µM
- TGI (K-562 leukemia): > 100 µM
- TGI (U251 CNS): > 100 µM
- TGI (IGROV1 ovarian): > 100 µM
- TGI (A549 NSCLC): > 100 µM
- TGI (SK-MEL-5 melanoma): > 100 µM
- TGI (SF-539 CNS): > 100 µM
- TGI (NCI-H460 lung): > 100 µM
- TGI (HS 578T breast): > 100 µM
- TGI (MALME-3M melanoma): > 100 µM
- TGI (MOLT-4 leukemia): > 100 µM
- TGI (HCT-116 colon): > 100 µM
- TGI (SNB-75 CNS): > 100 µM
- TGI (OVCAR-8 ovarian): > 100 µM
- TGI (SN12C renal): > 100 µM
- TGI (RXF 393 renal): > 100 µM
- TGI (SK-OV-3 ovarian): > 100 µM
- TGI (SW-620 colon): > 100 µM
- TGI (NCI-H23 lung): > 100 µM
- TGI (UACC-257 melanoma): > 100 µM
- TGI (SR leukemia): > 100 µM
- TGI (HL-60(TB) leukemia): > 100 µM
- TGI (TK-10 renal): > 100 µM
- TGI (MDA-MB-231 breast): > 100 µM
